Experimental data taken from article PMC11784013, “Potassium molybdate blocks APN-dependent coronavirus entry by degrading receptor via PIK3C3-mediated autophagy” (Journal of Virology, 2024).

Columns and labels:
PEDV LJX 01/2014 = assay: PEDV infection of Vero-E6 cells (TCID50, western blot); type: cell-based, porcine epidemic diarrhea virus; conditions: TCID50 and western blot
Protocol: Fig 1 PM inhibits TGEV and PRCV infection in ST cells. (A) A cytotoxicity assay of PM in ST cells. ST cells cultured in a 96-well plate were incubated with different concentrations of PM for 24 h, which was tested by Cell Counting Kit 8. (B) Time course for PM inhibiting TGEV or PRCV or PEDV infection assay. (C–F) The ST cells, pretreated with PM at the indicated concentrations for 1 h were infected with TGEV Miller (0.1 MOI) or PRCV (0.1 MOI) for 1 h and were again treated with PM at 37°C for 17 h. The cell samples were collected and examined by real-time quantitative PCR (RT-qPCR), TCID50, western blot (C and D), and immunofluorescence assay (IFA) (E and F), scale bar: 50 µm. (G) Vero-E6 cells were treated with indicated PM and infected with PEDV LJX 01/2014 according to the time course of Fig. 1B, which was detected by TCID50 and western blot. Results are presented as mean ± SD of data from three independent experiments. ns, no significant; **, P ≤ 0.01; ***, P ≤ 0.001.

[1] = test system: autophagosomes and autolysosomes; assay: Autophagic flux (RFP-EGFP-LC3B sensor) and transmission electron microscopy in ST cells; type: cell-based, swine
Protocol: Fig 6 PM degrades APN by autophagy-lysosome pathway. (A) ST cells were treated with PM (10 mM) and infected with TGEV (0.1 MOI) in the presence and absence of MG132 (20 µM), 3-MA (20 mM), and Z-VAD-FMK (20 µM) for 16 h. The APN expression and TGEV N were detected by western blot. (B) ST cells were treated with PM (10 mM) at 2, 4, 8, and 16 h, autophagy markers P62 and LC3, and APN were measured by western blot. (C) ST cells were transfected with RFP-EGFP-LC3B for 12 h and then treated with PM (10 mM) or H2O for 36 h. The fluorescence of GFP and RFP was detected by confocal microscopy, scale bar: 5 µm. (D) Quantification of autophagosomes (Merge) and autolysosomes (RFP) from C using Image J software. (E) ST cells were treated with PM or H2O for 24 h. The autophagosomes (yellow arrow) and autolysosomes (asterisk) were detected by transmission electron microscope, scale bar: 2 µm. (F) The number of autophagosomes (yellow arrow) and autolysosomes (asterisk) was quantified. All western blot results were calculated by Image J. Results are presented as mean ± SD of data from three independent experiments. ***, P ≤ 0.001.

APN = APN expression in ST cells and porcine intestinal organoids (western blot, IFA); type: cell-based; conditions: PM 10 mM; for APN level, western blot, relative to WT without PM (=1) / APN level, western blot quantified by Image J, relative to no PM (=1): PRCV 0.1 MOI; for APN level, western blot quantified by Image J, relative to no PM (=1): ST cells
Protocol: Fig 5 PM blocks TGEV infection by degrading APN expression. (A, D, and G) ST cells (A) or intestinal organoids monolayer (D) or apical-out intestinal organoids (G) were treated with PM (10 mM) at 2, 4, 8, and 16 h, which was collected and determined by western blot. (B, E, and H) ST cells (B) or intestinal organoids monolayer (E) or apical-out intestinal organoids (H) were treated with PM (10 mM) at 16 h, which was measured by IFA, scale bar: 20 µm. (C, F, and I) ST cells (C) or intestinal organoids monolayer (F) or apical-out intestinal organoids (I) were treated with PM (10 mM) and infected with 0.1 MOI TGEV at 2, 4, 8, and 16 h. The cell samples were harvested and detected by western blot. (J) ST cells were transfected with empty vector or pCMV-HA-APN (pig) plasmids for 24 h, which was treated with H2O or PM and then infected with 0.1 MOI TGEV for 16 h. The cell samples were detected by western blot. All western blot results were calculated by Image J. All experiments were performed in triplicate.
Cotransfected cells were washed with cold PBS twice and lysed with NP40 lysis buffer (Beyotime, China, P0013F) supplemented with 1 mM PMSF (Beyotime, China, ST506) and phosphatase inhibitors (Beyotime, China, P1096). Lysis buffer containing cells was added to 20 µL of protein A+G agarose beads (Beyotime, China, P2055) and IgG (Santa Cruz, USA, 2025) on a rotating device for 4 h at 4°C to remove nonspecific proteins, after which the mixture was centrifuged at 2,500 rpm for 5 min. The supernatant was harvested, and anti-Flag/Myc/His/IgG antibodies were added to the samples on a rocking platform overnight at 4°C. Subsequently, 40 µL of protein A+G agarose beads were added to the supernatant containing the antibody, which was incubated for 4 h at 4°C on a rotating device. After washing with lysis buffer three times, the immunoprecipitates were collected by centrifugation, and the supernatant was discarded. Immunoprecipitated proteins were detected by western blotting. For the western blot, the proteins were separated by SDS‒PAGE and transferred onto a PVDF membrane (GE, USA, 10600023). The membranes were blocked in 5% nonfat milk at room temperature for 2 h and then incubated with specific primary antibodies overnight. Subsequently, the membrane was incubated with the secondary antibody for 1 h at room temperature. Finally, the proteins on the membranes were visualized with WesternBright ECL (Advansta, USA, K-12045-D50).
Fig. S5. PM blocks PRCV infection by degrading APN expression. (A) ST cells were treated with PM (10 mM) and infected with 0.1 MOI PRCV at 2 h, 4 h, 8 h and 16 h. The cell samples were harvested and determined by western blot. All western blot results were calculated by Image J. All experiments were performed in triplicate.
Fig. S8. PM inhibits PRCV infection by degrading APN via PIK3C3-mediated autophagy. (A-C) WT ST cells and PIK3C3 KO ST cells were treated with PM (10 mM) and infected with PRCV (0.1 MOI) for 16 h. Then the APN, PIK3C3, ATG14, BECN1, P62, PRCV N and LC3 were detected by western blot (A), and viral titers and PRCV N mRNA level were determined by TCID50 (B) and RT-qPCR (C) . (D-F) WT ST cells and PIK3C3 KO ST cells transfected with pCMV-Myc and pCMV-Myc-PIK3C3 respectively for 24 h were treated with PM (10 mM) and infected with PRCV (0.1 MOI) for 16 h. The APN, PIK3C3, P62, PRCV N and LC3 were determined by western blot (D). TCID50 (E) and RT-qPCR (F) were performed to detect viral titers and PRCV N m RNA level. All western blot results were calculated by Image J. Results are presented as mean ± SD of data from three independent experiments […]

## [K+].[K+].[O]=[Mo](=[O])([O-])[O-] [PM, potassium molybdate]
PEDV LJX 01/2014
  PEDV infection: unable to repress PEDV infection
[1]; PM 10 mM, 36 h, confocal microscopy
  autophagic flux (RFP-EGFP-LC3B sensor): increased RFP signals (autolysosomes) and merge signals (autophagosomes)
[1]; PM vs H2O, 24 h
  autophagosomes and autolysosomes by transmission electron microscopy: formed more autophagosomes
APN; Fig. S8A, PIK3C3 KO ST cells, 16 h
  APN level, western blot, relative to WT without PM (=1): 0.88
APN; Fig. S8A, WT ST cells, 16 h
  APN level, western blot, relative to WT without PM (=1): 0.15
APN; Fig. S8D, PIK3C3 KO ST cells with PIK3C3-Myc, 16 h
  APN level, western blot, relative to WT without PM (=1): 0.14
APN; Fig. S8D, PIK3C3 KO ST cells without PIK3C3-Myc, 16 h
  APN level, western blot, relative to WT without PM (=1): 0.87
APN; Fig. S8D, WT ST cells with pCMV-Myc, 16 h
  APN level, western blot, relative to WT without PM (=1): 0.1
APN; 2-16 h, western blot and IFA
  APN expression in ST cells: decreased APN expression in ST cells
APN; absence or presence of TGEV, different time points, western blot and IFA
  APN expression in intestinal organoid monolayers and apical-out organoids: decreased ex vivo APN expression
APN; 2 h
  APN level, western blot quantified by Image J, relative to no PM (=1): 0.53
APN; 4 h
  APN level, western blot quantified by Image J, relative to no PM (=1): 0.31
APN; 8 h
  APN level, western blot quantified by Image J, relative to no PM (=1): 0.19
APN; 16 h
  APN level, western blot quantified by Image J, relative to no PM (=1): 0.01
